From US20080051466A1, “Isoalpha acid based protein kinase modulation cancer treatment” (Metaproteomics, LLC, priority 2006, published 2008)
Marks after values point to notes of the source that are not given here.

Columns and labels:
LPS/3T3-L1 adipocytes [1] = experiment: Adiponectin secretion in LPS/3T3-L1 adipocytes; assay type: cell-based, murine; conditions: 100 ng/ml LPS; for induction of adiponectin secretion: any of the doses tested
[2] = test system: insulin-resistant 3T3-L1 adipocytes; experiment: Adiponectin secretion from insulin-resistant 3T3-L1 adipocytes; assay type: cell-based, murine; conditions: 50.0 μg/ml
Procedure: 3T3-L1 cells were seeded at an initial density of 1×10^4 cells/cm^2 in 96-well plates. For two days, the cells were allowed grow to reach confluence. Following confluence, the cells were forced to differentiate into adipocytes by the addition of differentiation medium; this medium consisted of (1) 10% FBS/DMEM (high glucose); (2) 0.5 mM methylisobutylxanthine; (3) 0.5 μM dexamethasone and (4) 10 μg/ml insulin (MDI medium). From Day 3 through Day 5, the medium was changed to post-differentiation medium consisting of 10 μg/ml insulin in 10% FBS/DMEM.
Briefly, on Day 6, cells were maintained in serum-free media containing 0.5% bovine serum albumin (BSA) for three hours and then treated with 1 μg insulin/ml plus solvent or insulin plus test material. […] Twenty-four hours later, the supernatant medium was sampled for adiponectin determination.
(§1) Adiponectin Assay—The adiponectin secreted into the medium was quantified using the Mouse Adiponectin Quantikine® Immunoassay kit with no modifications (R&D Systems, Minneapolis, Minn.).
Substituting {relative adiponectin secretion/[concentration])} for the independent variable v/[S] and {relative adiponectin secretion} for the dependant variable {v}, produced a relationship of the form y=mx+b. […]

[3] = test system: TNFα-treated 3T3-L1 adipocytes; experiment: Adiponectin secretion from TNFα-treated 3T3-L1 adipocytes; assay type: cell-based, murine; conditions: for increase of adiponectin secretion in the presence of TNFα: optimal concentration; for Concentration of maximum adiponectin secretion: over four doses
Procedure: 3T3-L1 cells were seeded at an initial density of 1×10^4 cells/cm^2 in 96-well plates. For two days, the cells were allowed grow to reach confluence. Following confluence, the cells were forced to differentiate into adipocytes by the addition of differentiation medium; this medium consisted of (1) 10% FBS/DMEM (high glucose); (2) 0.5 mM methylisobutylxanthine; (3) 0.5 μM dexamethasone and (4) 10 μg/ml insulin (MDI medium). From Day 3 through Day 5, the medium was changed to post-differentiation medium consisting of 10% FBS in DMEM. […] On Day 6, the supernatant medium was sampled for adiponectin determination.
as §1

LPS/3T3-L1 adipocytes [4] = experiment: IL-6 secretion in LPS/3T3-L1 adipocytes; assay type: cell-based, murine; conditions: 100 ng LPS/ml, D5 3T3-L1
NF-kBp65 = NF-kBp65 nuclear translocation in TNFα-treated 3T3-L1 adipocytes; assay type: cell-based, murine; conditions: 2.5 and 5.0 μg/ml, three or 24 hours following TNFα
Procedure: Cell Culture and Treatment—Following differentiation 3T3-L1 adipocytes were maintained in post-differentiation medium for an additional 40 days. […] Hops derivatives and the positive control pioglitazone were tested at concentrations of 2.5, and 5.0 μg/ml. Test materials were added 1 hour prior to and nuclear extracts were prepared three and 24 hours following treatment with TNFα.
ELISA-3T3-L1 adipocytes were maintained in growth media for 40 days following differentiation. Nuclear NF-kBp65 was determined using the TransAM™ NF-kB kit from Active Motif (Carlsbad, Calif.) was used with no modifications. Jurkat nuclear extracts provided in the kit were derived from cells cultured in medium supplemented with 50 ng/ml TPA (phorbol, 12-myristate, 13 acetate) and 0.5 μM calcium ionophore A23187 for two hours at 37° C. immediately prior to harvesting.
Protein assay—Nuclear protein was quantified using the Active Motif Fluorescent Protein Quantification Kit.

[5] = test system: A549 pulmonary epithelial cells; experiment: PGE2 biosynthesis in A549 cells stimulated by mite dust allergen; assay type: cell-based, human; conditions: 10 μg/ml, mite dust allergen 1000 ng/ml, 18 h
Procedure: The filtrate was termed mite dust allergen and used to test for induction of PGE2 biosynthesis in A549 pulmonary epithelial cells.
Mite allergen was added to the culture medium to achieve a final concentration of 1000 ng/ml. Eighteen hours later, the media were sampled for PGE2 determination.

## CC(=O)Oc1ccccc1C(=O)O [Aspirin, aspirin]
LPS/3T3-L1 adipocytes [1]
  induction of adiponectin secretion: failed to induce adiponectin secretion

## CC(C)CCC1=C(O)C(C(=O)C(C)C)=C(O)C(CCC(C)C)(CCC(C)C)C1=O [Hexahydrocolupulone (HHCL)]
[2]
  Adiponectin/IL-6: 0.60#

## COc1ccc2c(c1)c(CC(=O)O)c(C)n2C(=O)c1ccc(Cl)cc1 [Indomethacin, indomethacin]
[3]; 10 ng TNFα/ml
  increase of adiponectin secretion in the presence of TNFα: 94%
  Concentration of maximum adiponectin secretion: 5.0 µg/mL
[3]; 10 ng TNFα/ml, listed as indomethacin
  Concentration of maximum adiponectin secretion: 2.5 µg/mL
LPS/3T3-L1 adipocytes [4]; 5.00 μg/ml
  Maximum inhibition of IL-6 secretion, % Inhibition: 53* %
LPS/3T3-L1 adipocytes [1]; […]
  maximum adiponectin stimulation: 9%

## CCc1ccc(CCOc2ccc(CC3SC(=O)NC3=O)cc2)nc1 (stereo not drawn) [Pioglitazone, pioglitazone]
[3]; 10 ng TNFα/ml
  increase of adiponectin secretion in the presence of TNFα: 80%
[3]; 10 ng TNFα/ml, [Adiponectin]Test/[Adiponectin]TNFα control
  Adiponectin Index (relative maximum adiponectin secretion): 1.47
[3]; 1.0 μg/ml, TNFα/3T3-L1, curcumin/XN combinations, indexed to TNFα control
  Adiponectin Index Observed: 1.80
NF-kBp65
  inhibition of the amount of nuclear NF-kBp65: did not inhibit
LPS/3T3-L1 adipocytes [4]; 5.00 μg/ml (dose of maximum inhibition)
  IL-6 Index at maximum inhibition: 0.37*

## O=C(O)c1ccccc1O [salicylic acid]
LPS/3T3-L1 adipocytes [4]; 50.0 μg/ml (dose of maximum inhibition)
  IL-6 Index at maximum inhibition: 0.52*
LPS/3T3-L1 adipocytes [1]
  induction of adiponectin secretion: failed to induce adiponectin secretion

## Beta acids
[5]
  Percent PGE2 Inhibition: 83%
